The data set has as its system GENE-TOX genotoxicity assays, various organisms and cells. Briefly: GENE-TOX mutagenicity studies. Particulars: for call: Assay Type: In vivo carcinogenicity studies.
The mark [1] stands for this setting: Species/Cell Type: Bacillus subtilis (H17 vs M45), Assay Type: Rec-assay, spot test, DNA effects (bacterial DNA repair), Assay Code: REW+, Evaluation Type: Evaluation A (Pre-1980).
[2] abbreviates: Species/Cell Type: Human diploid fibroblasts, Assay Type: Unscheduled DNA synthesis (UDS) in vitro, DNA effects, Assay Code: UDH-, Evaluation Type: Evaluation A (Pre-1980).
Setting [3] is: Species/Cell Type: Human, Sex: Male, Assay Type: Sperm morphology, Assay Code: SPH+, Evaluation Type: Evaluation A (Pre-1980).
Where [4] appears, read: Species/Cell Type: Escherichia coli polA (W3119 vs P3478), Assay Type: Rec-assay, DNA effects (bacterial DNA repair), Assay Code: RE1T, Evaluation Type: Evaluation A (Pre-1980).
Setting [5] is: Species/Cell Type: Nonhuman, Assay Code: CCG+, Evaluation Type: Evaluation A (Pre-1980).
Setting [6] is: Species/Cell Type: Saccharomyces cerevisiae, Assay Type: Mitotic recombination or gene conversion, Assay Code: YEH-, Evaluation Type: Evaluation A (Pre-1980).
Where [7] appears, read: Species/Cell Type: Salmonella typhimurium (one or more of the five standard strains: TA98, TA100, TA1535, TA1537, and TA1538), Assay Type: Histidine reverse gene mutation, Ames assay, Assay Code: SAL-, Evaluation Type: Evaluation A (Pre-1980).
The mark [8] stands for this setting: Species/Cell Type: Saccharomyces cerevisiae, Assay Type: Mitotic recombination or gene conversion, Assay Code: YEC-, Evaluation Type: Evaluation A (Pre-1980).
The mark [9] stands for this setting: Species/Cell Type: Saccharomyces cerevisiae, Assay Type: Mitotic recombination or gene conversion, Assay Code: YEC+, Evaluation Type: Evaluation A (Pre-1980).
Where [10] appears, read: Species/Cell Type: Drosophila melanogaster, Assay Type: Sex-linked recessive lethal gene mutation, Assay Code: SRLT, Evaluation Type: Evaluation A (Pre-1980).
[11] abbreviates: Species/Cell Type: Salmonella typhimurium (one or more of the five standard strains: TA98, TA100, TA1535, TA1537, and TA1538), Assay Type: Histidine reverse gene mutation, Ames assay, Assay Code: SAL+, Evaluation Type: Evaluation A (Pre-1980).

Structures are written as SMILES. Calls of active or inactive are those of the source. The rule behind the calls is not given here.

Take `O=S(O)CO`: for the setting “Species/Cell Type: Drosophila melanogaster, Sex: Male, Assay Type: Heritable translocation test, chromosome aberrations, Assay Code: DHTT, Evaluation Type: Evaluation A (Pre-1980)”, the mutagenic call is given as “no conclusion”.

For `[Cl][Ir-2]([Cl])([Cl])([Cl])([Cl])[Cl]`, the mutagenic call under setting [1] was “active; positive”.

Turning to `O=C=NCCCl`, the mutagenic call (Species/Cell Type: Chinese hamster lung (V79) cells, Assay Type: Forward gene mutation at the HPRT or ouabain locus, Assay Code: V79-, Evaluation Type: Evaluation A (Pre-1980)) is “inactive; negative”.

Turning to `O=[N+]([O-])c1ccc2c(ccc[n+]2[O-])c1`, under setting [2], the mutagenic call was “inactive; negative”.

For the molecule `O=C(NCCCCCCCCNC(=O)C(Cl)Cl)C(Cl)Cl`, the mutagenic call under setting [3] was “active; positive”.

As for `CC(N)=O`, the mutagenic call reads like this: (Species/Cell Type: Escherichia coli polA (W3110 vs P3478), Assay Type: Rec-assay, DNA effects (bacterial DNA repair), Assay Code: RE2-, Evaluation Type: Evaluation A (Pre-1980)) “inactive; negative”; under setting [4], “no conclusion”; (Species/Cell Type: Fischer rat embryo (RLV/1706) cells, Assay Type: Cell transformation, viral enhanced, Assay Code: CTR+, Evaluation Type: Evaluation A (Pre-1980)) “active; positive”; (Species/Cell Type: Mammalian polychromatic erythrocytes, Assay Type: Micronucleus test, chromosome aberrations, Assay Code: MNT+U, Dose Response: Unconfirmed positive response, Evaluation Type: Evaluation B (Post-1980)) “active; positive”; (Species/Cell Type: Mouse embryo (AKR/ME) cells, Assay Type: Cell transformation, Assay Code: CTK+, Evaluation Type: Evaluation A (Pre-1980)) “active; positive”; (Species/Cell Type: Mouse, Sex: Male, Assay Type: Sperm morphology, Assay Code: SPI-, Evaluation Type: Evaluation A (Pre-1980)) “inactive; negative”. The mutagenic call under setting [6] is “inactive; negative”; the mutagenic call under setting [7] is “inactive; negative”; the mutagenic call (Species/Cell Type: Salmonella typhimurium, Assay Type: Forward and reverse gene mutation, host-mediated assay, Assay Code: HMA-, Evaluation Type: Evaluation A (Pre-1980)) was “inactive; negative”; the mutagenic call (Species/Cell Type: Syrian hamster embryo (SHE) cells, Assay Type: Cell transformation, clonal assay, Assay Code: CTC+, Evaluation Type: Evaluation A (Pre-1980)) is “active; positive”. Besides, under setting [5], the call was “active; positive”.

On to `CCC(C)c1cc([N+](=O)[O-])cc([N+](=O)[O-])c1OC(C)=O` (stereo not given), for which the mutagenic call under setting [8] is “inactive; negative”.

Turning to `S=C([S-])NCCNC(=S)[S-].[Zn+2]`, the mutagenic call is, setting by setting: under setting [2], “inactive; negative”; under setting [9], “active; positive”; under setting [6], “inactive; negative”.

In the case of `O=S(=O)(O)c1ccc(N=Nc2c(O)ccc3cc(S(=O)(=O)O)ccc23)cc1`, the mutagenic call is, setting by setting: (Species/Cell Type: Bacillus subtilis (H17 vs M45), Assay Type: Rec-assay, spot test, DNA effects (bacterial DNA repair), Assay Code: REWT, Evaluation Type: Evaluation A (Pre-1980)) “no conclusion”; (Species/Cell Type: Bacillus subtilis (H17 vs M45T), Assay Type: Rec-assay, spot test, DNA effects (bacterial DNA repair), Assay Code: REXT, Evaluation Type: Evaluation A (Pre-1980)) “no conclusion”; (Species/Cell Type: Nonhuman, Assay Type: Sister-chromatid exchange (SCE) in vitro, Assay Code: SC2T, Evaluation Type: Evaluation A (Pre-1980)) “no conclusion”; under setting [8], “inactive; negative”; under setting [7], “inactive; negative”. For the same molecule, the call (Species/Cell Type: Nonhuman, Assay Code: CCG-, Evaluation Type: Evaluation A (Pre-1980)) is “inactive; negative”.

Regarding `C=C1C/C(=C/C)C(=O)O[C@@H]2CCN3CC=C(COC(=O)[C@]1(C)O)[C@H]23`, the mutagenic call (Species/Cell Type: Nonhuman, Assay Type: Sister-chromatid exchange (SCE) in vitro, Assay Code: SC2+D, Dose Response: With dose response, Evaluation Type: Evaluation B (Post-1980)) is “active; positive”.

`CC(=O)O[C@]1(C(C)=O)CC[C@H]2[C@@H]3C=C(Cl)C4=CC(=O)[C@@H]5C[C@@H]5[C@]4(C)[C@H]3CC[C@@]21C`: the mutagenic call under setting [3] was “active; positive”.

`Cc1c2ccccc2cc2c1ccc1cccc(C)c12`: the mutagenic call under setting [10] is on record as “no conclusion”.

As for `OCc1c2ccccc2cc2c1ccc1ccccc12`, the mutagenic call (Species/Cell Type: Mouse prostate cells, Assay Type: Cell transformation, Assay Code: CTM+, Evaluation Type: Evaluation A (Pre-1980)) was “active; positive”.

Take `CC(=O)OCN(C)N=O`: the mutagenic call (Species/Cell Type: Salmonella typhimurium, Assay Type: Forward and reverse gene mutation, host-mediated assay, Assay Code: HMA+, Evaluation Type: Evaluation A (Pre-1980)) is “active; positive”.

Take `Nc1nc(-c2cc([N+](=O)[O-])cs2)cs1`: under setting [11], the mutagenic call was “active; positive”.

In the case of `CC(C)C(O)(C(=O)OCC1=CC[N@+]2([O-])CCCC12)[C@H](C)O` (stereo not given in full), the mutagenic call under setting [10] was “no conclusion”.

For `CN(C)c1ccc(N(C)C)c2c1C(=O)c1c(O)ccc(O)c1C2=O`, under setting [11], the mutagenic call was “active; positive”.

As for `CN(C)N=Nc1ccc(O)cc1`, the mutagenic call was “no conclusion” under setting [10] and “inactive; positive without activation, negative with activation” (Species/Cell Type: Saccharomyces cerevisiae, Assay Type: Mitotic recombination or gene conversion, Assay Code: YEC+/-*, Activation: With metabolic activation, Evaluation Type: Evaluation A (Pre-1980)).

Regarding `ClCOCCl`, the call under setting [5] was “active; positive”.

Regarding `NC[C@H]1O[C@H](O[C@H]2[C@H](O)[C@@H](O[C@H]3O[C@H](CO)[C@@H](O)[C@H](N)[C@H]3O)[C@H](N)C[C@@H]2N)[C@H](N)C[C@@H]1O`, under setting [6], the mutagenic call was “inactive; negative”.

Regarding `O=NN1CCNC1=O`, the mutagenic call reads like this: (Species/Cell Type: Arabidopsis species, Assay Type: Gene mutation, Assay Code: ARM+D, Dose Response: With dose response, Evaluation Type: Evaluation A (Pre-1980)) “active; positive”; (Species/Cell Type: Saccharomyces cerevisiae, Assay Type: Forward gene mutation, Assay Code: YEF+, Evaluation Type: Evaluation A (Pre-1980)) “active; positive”; under setting [9], “active; positive”; (Species/Cell Type: Saccharomyces cerevisiae, Assay Type: Mitotic recombination or gene conversion, Assay Code: YEH+, Evaluation Type: Evaluation A (Pre-1980)) “active; positive”; (Species/Cell Type: Saccharomyces cerevisiae, Assay Type: Reverse gene mutation, Assay Code: YER+, Evaluation Type: Evaluation A (Pre-1980)) “active; positive”; under setting [11], “active; positive”.

As for `COc1cc(Cc2cnc(N)nc2N)cc(OC)c1OC`, the mutagenic call reads like this: (Species/Cell Type: Neurospora crassa, Assay Type: Aneuploidy, chromosome aberrations, Assay Code: NEN+, Evaluation Type: Evaluation A (Pre-1980)) “active; positive”; (Species/Cell Type: Nonhuman, Assay Type: Sister-chromatid exchange (SCE) in vitro, Assay Code: SC2+, Evaluation Type: Evaluation B (Post-1980)) “active; positive”.

`O=C(O)c1cc(I)cc(I)c1I`: the mutagenic call (Species/Cell Type: Hordeum vulgare (barley), Assay Type: Chromosome aberrations, Assay Code: HOC+, Evaluation Type: Evaluation A (Pre-1980)) was “active; positive”.

On to `[Cl][Fe][Cl]`, for which the mutagenic call by setting is: (Species/Cell Type: Bacillus subtilis (H17 vs M45), Assay Type: Rec-assay, spot test, DNA effects (bacterial DNA repair), Assay Code: REW-, Evaluation Type: Evaluation A (Pre-1980)) “inactive; negative”; (Species/Cell Type: Syrian hamster embryo (SA7/SHE) cells, Assay Type: Cell transformation, viral enhanced, Assay Code: CT7+, Evaluation Type: Evaluation A (Pre-1980)) “active; positive”.

Turning to `Nc1nc2nc[nH]c2c(=O)[nH]1`, the mutagenic call under setting [10] is on record as “no conclusion” and the mutagenic call under setting [4] is reported as “no conclusion”.

Turning to `Cc1cc(O)c2c(c1)C(=O)C13C(=C2O)C(=O)C2C(O)C1C1C(O)C3C(=O)C3=C(O)c4c(O)cc(C)cc4C(=O)C321` (stereo not given), under setting [1], the mutagenic call was “active; positive”.

As to `Cc1ccc2cc3c4c(ccc3c3c2c1CC3)C(O)C(O)C=C4` (stereo not given), the mutagenic call runs as follows: (Species/Cell Type: Chinese hamster lung (V79) cells, Assay Type: Forward gene mutation at the HPRT or ouabain locus, Assay Code: V79+, Evaluation Type: Evaluation A (Pre-1980)) “active; positive”; (Species/Cell Type: Salmonella typhimurium (one or more of the five standard strains: TA98, TA100, TA1535, TA1537, and TA1538), Assay Type: Histidine reverse gene mutation, Ames assay, Assay Code: SAL+*, Activation: With metabolic activation, Evaluation Type: Evaluation A (Pre-1980)) “active; positive”. Also, where the note is “Species/Cell Type: Nonhuman, Assay Code: CCG+L, Evaluation Type: Evaluation A (Pre-1980)”, the call is “active; positive”.
